Data from publication PMC7155171, “Probing the Open Global Health Chemical Diversity Library for Multistage-Active Starting Points for Next-Generation Antimalarials” (ACS Infectious Diseases, 2020).
Where two headings read alike, the source gives them in different places.

Key:
P. falciparum Dd2 = assay: SYBR green I asexual blood stage proliferation assay (96 h); assay type: cell-based, Plasmodium falciparum; conditions: Plasmodium falciparum, DD2, 11-pt dose response, 96hr
[1] = test system: P. falciparum Dd2 (PfLuc) line expressing firefly luciferase, asexual blood stage; assay: microbe, parasite or virus in culture; assay type: cell-based, Plasmodium falciparum; conditions: Plasmodium falciparum
[2] = Sybr Green I, read-out: CDD P. falciparum Sybr Green I ABS 11-pt Reconfirmation Dose Response (96hr): IC50
[3] = Sybr Green I, read-out: CDD P. falciparum Sybr Green I ABS 11-pt Reconfirmation Dose Response (96hr): Maximum inhibition (%)
[4] = DD2, read-out: CDD P. falciparum Luciferase ABS 11-pt Reconfirmation Dose Response (48hr): IC50 (μM), 11-pt dose response, 48hr
[5] = DD2, 8-pt dose response, 96hr, read-out: CDD P. falciparum Luciferase ABS 8-pt Reconfirmation Dose Response (96hr): IC50
[6] = DD2, 8-pt dose response, 96hr, read-out: CDD P. falciparum Luciferase ABS 8-pt Reconfirmation Dose Response (96hr): Maximum inhibition (%)
[7] = DD2, 11-pt dose response, 48hr, read-out: CDD P. falciparum Luciferase ABS 11-pt Reconfirmation Dose Response (48hr): Maximum inhibition (%)
[8] = DD2, 11-pt dose response, 96hr, read-out: CDD P. falciparum Luciferase ABS 11-pt Reconfirmation Dose Response (96hr): IC50
[9] = DD2, 11-pt dose response, 96hr, read-out: CDD P. falciparum Luciferase ABS 11-pt Reconfirmation Dose Response (96hr): Maximum inhibition (%)
[10] = 96 h incubation, Dd2 luciferase, read-out: 96 hour Pfluc IC50
[11] = read-out: P. falciparum Sybr Green I ABS 11-pt Reconfirmation Dose Response (96hr): IC50
[12] = read-out: P. falciparum Sybr Green I ABS 11-pt Reconfirmation Dose Response (96hr): Maximum inhibition (%)
[13] = DD2, read-out: P. falciparum Luciferase ABS 11-pt Reconfirmation Dose Response (48hr): IC50, 11-pt dose response, 48hr
[14] = DD2, 8-pt dose response, 96hr, read-out: P. falciparum Luciferase ABS 8-pt Reconfirmation Dose Response (96hr): IC50
[15] = DD2, 8-pt dose response, 96hr, read-out: P. falciparum Luciferase ABS 8-pt Reconfirmation Dose Response (96hr): Maximum inhibition (%)
[16] = DD2, 11-pt dose response, 96hr, read-out: P. falciparum Luciferase ABS 11-pt Reconfirmation Dose Response (96hr): IC50
[17] = DD2, 11-pt dose response, 96hr, read-out: P. falciparum Luciferase ABS 11-pt Reconfirmation Dose Response (96hr): Maximum inhibition (%)
[18] = DD2, 11-pt dose response, 48hr, read-out: P. falciparum Luciferase ABS 11-pt Reconfirmation Dose Response (48hr): Maximum inhibition (%)

SMILES	IC50 (P. falciparum Dd2; [2])	Emax (P. falciparum Dd2; [3])	IC50 [1, 4]	IC50 [1, 5]	Emax [1, 6]	Emax [1, 7]	IC50 [1, 8]	Emax [1, 9]	IC50 [1, 10]	IC50 (P. falciparum Dd2; [11])	Emax (P. falciparum Dd2; [12])	IC50 [1, 13]	IC50 [1, 14]	Emax [1, 15]	IC50 [1, 16]	Emax [1, 17]	Emax [1, 18]
CC(NCCc1nccn1Cc1ccccc1)c1ccsc1 (centres unmarked) [DDD01065612]	960 nM	77.4%	4.05 µM	1.09 µM	87.3%	68.1%	0.666 µM	88.3%									
CN1CCC(O)(CNCc2ccc(F)c(C(F)(F)F)c2)CC1 [DDD01065665]	3170 nM	86.1%	> 12.5 µM	0.71 µM	90.5%	33.7%	4.45 µM	88.8%									
CC1(C)CN(C(CNC2=NCCN2)c2ccc(Cl)cc2)CCO1 (centres unmarked) [DDD01066238]	3750 nM	50.5%	0.786 µM	0.55 µM	80.3%	64.5%	3.52 µM	81.2%									
O=C(CC1CCCC1)NCCNCc1cccc2c1OCCO2 [DDD01067280]	> 4160 nM	67%	> 12.5 µM	1.09 µM	84.7%	64.2%	> 1.39 µM	89.2%									
c1cc2c(cc1C1(CNC3=NCCN3)CCCC1)OCCO2 [DDD01067440]	1240 nM	65.6%	8.77 µM	0.57 µM	86.8%	68.7%	1.63 µM	92%									
Clc1ccc(C2(CNC3=NCCN3)CC2)cc1 [DDD01067441]	760 nM	101%	1.96 µM	0.55 µM	95.1%	96.7%	0.613 µM	99.9%									
Clc1ccc(C2(CNC3=NCCN3)CCCC2)cc1 [DDD01067443]	2260 nM	98.5%	5.56 µM	0.25 µM	94.9%	90%	0.995 µM	98.3%	1 µM								
Clc1ccc(C2(CNC3=NCCN3)CCCCC2)cc1 [DDD01067446]	1290 nM	99.8%	2.9 µM	0.22 µM	96.3%	97.1%	0.731 µM	99.6%									
Fc1ccc(C2(CNC3=NCCN3)CCCC2)cc1 [DDD01067448]										3300 nM	94.1%	6.73 µM	1.43 µM	88.3%	1.18 µM	95.9%	
CCN1CCCN(S(=O)(=O)c2cc3ccccc3o2)CC1 [DDD01067562]	1460 nM	73.1%	8.55 µM	0.58 µM	87.2%	65%	1.34 µM	85.4%									
O=C(Nc1nccs1)C1CCCN1Cc1ccccn1 (centres unmarked) [DDD01068868]	888 nM	96.4%	0.884 µM	0.3 µM		91.2%	0.303 µM	99.3%									
Cc1cccc(OC(C)C(=O)NCC2(N(C)C)CCCC2)c1 (centres unmarked) [DDD01069466]	2140 nM	64.8%	> 12.5 µM	0.95 µM		46.7%	2.5 µM	85.7%									
CN1CCN(CC(NCc2ccc(F)c(F)c2)c2ccccc2)CC1 (centres unmarked) [DDD01069631]	4410 nM	85.4%	5.37 µM	0.58 µM	89.5%	78.3%	0.913 µM	94.6%	0.91 µM								
CC(C)(C)C(=O)NCCNCc1ccc(Cl)c2cccnc12 [DDD01070293]	2250 nM	64.4%	> 12.5 µM	1.05 µM	82%	37.6%	1.51 µM	83.4%									
CCN1CCN(c2ccc(F)cc2C(C)NCc2ccccn2)CC1 (centres unmarked) [DDD01070491]	> 4160 nM	73.8%	> 12.5 µM	0.83 µM	82.8%	53%	1.9 µM										
CCN1CCN(c2ccc(F)cc2C(C)NCc2cscn2)CC1 (centres unmarked) [DDD01070576]										7180 nM	78.2%	> 12.5 µM	1.25 µM	87.1%	2.44 µM		47.9%
Cc1cc(Cl)ccc1S(=O)(=O)NCC(C)N1CCN(C)CC1 (centres unmarked) [DDD01071406]										> 4160 nM		6.35 µM	1.66 µM	87.3%	4.93 µM	86.6%	56.6%
COc1ccc(C(=O)NCCCOC(C)c2ccccc2)c(OC)c1 (centres unmarked) [DDD01071935]	> 4160 nM	72.8%	9.88 µM	1.03 µM		67.4%	3.26 µM	90.2%									
OCCN1CCC(CNCc2ccc(Br)cc2)CC1 [DDD01072406]	2010 nM	92.7%	2.84 µM	0.53 µM	95.5%	94.9%	0.749 µM	99.6%									
O=C(c1ccccc1)C1CCN(Cc2cc3c(cc2O)CCC3)CC1 [DDD01073482]	2300 nM		1.73 µM	0.6 µM	93.1%	94.9%	0.607 µM	99.4%									
CC(NCC1CCN(CCO)CC1)c1ccc(F)c(Cl)c1 (centres unmarked) [DDD01073649]	1900 nM	91.9%	3.46 µM	1.04 µM	87%	94.4%	0.802 µM	99.5%	0.8 µM								
CC(NCC1CCN(CCO)CC1)c1ccc(OC(F)(F)F)cc1 (centres unmarked) [DDD01073716]	2880 nM	95.9%	3.68 µM	0.46 µM	95.5%		0.546 µM	99.2%	0.55 µM								
CC(NCC1CCN(CCO)CC1)c1cccc(Cl)c1 (centres unmarked) [DDD01073717]	1320 nM	92.1%	3.01 µM	0.56 µM	94.9%	93.9%	0.988 µM	99.8%									
CC(NCC1CCN(CCO)CC1)c1ccc(Cl)cc1 (centres unmarked) [DDD01073718]	844 nM		2.47 µM	0.81 µM			0.695 µM	98.2%									
CC(NCC1CCN(CCO)CC1)c1ccc(C(F)(F)F)cc1 (centres unmarked) [DDD01073719]	2650 nM	92.8%	4.64 µM	0.52 µM	92.5%		0.614 µM	98.9%	0.61 µM								
COc1ccc(CN2CCNC(=O)CC2)cc1SC(F)(F)F [DDD01074373]										> 4160 nM	51.3%	> 4.16 µM	1.28 µM		0.735 µM	70.4%	57.7%
CCN(CC)Cc1ccccc1NC(=O)N(C)Cc1ccccc1O [DDD01074443]	6280 nM	87.8%	3.95 µM	0.88 µM	90%	89.7%	3.26 µM	95.8%									
COCCOc1ccccc1CNCC1COC2(CCCC2)O1 (centres unmarked) [DDD01074854]										2130 nM	71.9%	> 12.5 µM	1.89 µM	84.3%	2.71 µM	75.6%	29.8%
